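Where inhibition never reached the appropriate level, the endpoint shown equals the highest concentration tested. Otherwise, values were interpolated linearly from a five-concentration, 48-hour dose response in 96-well plates. Abbreviation: GI50, concentration required for 50% inhibition of growth. TGI: concentration producing complete growth inhibition.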
Legend:
Assay in all cases: NCI anticancer screen, dose series, 48 h
[1] = tested on: 786-0 renal
[2] = tested on: HOP-92 NSCLC
[3] = tested on: IGROV1 ovarian
[4] = tested on: K-562 leukemia
[5] = tested on: MOLT-4 leukemia
[6] = tested on: NCI-H226 lung
[7] = tested on: NCI-H522 lung
[8] = tested on: PC-3 prostate
[9] = tested on: SK-MEL-2 melanoma
[10] = tested on: HOP-62 NSCLC

| Structure (SMILES) | TGI [1] | TGI [2] | TGI [3] | TGI [4] | TGI [5] | TGI [6] | TGI [7] | TGI [8] | TGI [9] | TGI [10] | GI50 [10] | GI50 [2] | GI50 [3] | GI50 [4] | GI50 [5] | GI50 [6] | GI50 [7] | GI50 [8] | GI50 [9] |
| --- | --- | --- | --- | --- | --- | --- | --- | --- | --- | --- | --- | --- | --- | --- | --- | --- | --- | --- | --- |
| Cc1ccc(C(=O)Nc2ccc(S(=O)(=O)O)c3cc(S(=O)(=O)O)cc(S(=O)(=O)O)c23)cc1NC(=O)c1cccc(NC(=O)Nc2cccc(C(=O)Nc3cc(C(=O)Nc4ccc(S(=O)(=O)O)c5cc(S(=O)(=O)O)cc(S(=O)(=O)O)c45)ccc3C)c2)c1 (tested in a mixture with another compound) | > 50 µM | > 50 µM | > 50 µM | > 50 µM | > 50 µM | > 50 µM | > 50 µM | > 50 µM | > 50 µM | – | – | – | – | – | – | – | – | – | – |
| CCCCCCC(C)OC(=O)/C=C(\CC(=O)OC(C)CCCCCC)C(=O)OC(C)CCCCCC (configuration not stated) | > 100 µM | > 100 µM | > 100 µM | – | > 100 µM | > 100 µM | > 100 µM | – | > 100 µM | > 100 µM | – | – | – | – | – | – | – | – | – |
| CSc1nc2c(=O)n(-c3ccccc3)c(=S)n(-c3ccccc3)c2s1 | > 100 µM | 80.5 µM | > 100 µM | > 100 µM | > 100 µM | 86.3 µM | > 100 µM | > 100 µM | > 100 µM | > 100 µM | – | – | – | – | – | – | – | – | – |
| CCOc1ccc2nc(NC(NC(=O)c3cccnc3)(C(F)(F)F)C(F)(F)F)sc2c1 | 94.3 µM | 80.6 µM | – | > 100 µM | 55.5 µM | > 100 µM | 84.2 µM | 78.6 µM | > 100 µM | – | – | – | – | – | – | – | – | – | – |
| CCN1CCC(O)(c2ccc(Oc3ccc(C)cc3)cc2)C(C(=O)c2ccc(Oc3ccc(C)cc3)cc2)C1 (configuration not stated) | 17.2 µM | 21.7 µM | 25 µM | > 100 µM | 69.1 µM | 27.9 µM | – | 24.5 µM | 35.9 µM | 35.5 µM | – | – | – | – | – | – | – | – | – |
| CCN(CC)CCCC(C)NC(=O)c1ccc2c(c1)C(=O)c1ccccc1C2=O (configuration not stated) | 39.5 µM | 63.7 µM | 55.3 µM | 48.4 µM | 52.8 µM | 49 µM | 37.4 µM | – | 38.9 µM | 69.9 µM | – | – | – | – | – | – | – | – | – |
| CC(=O)N1c2ccccc2C(C)C1c1[nH]c2ccccc2c1C (configuration not stated) | 39.9 µM | – | > 100 µM | > 100 µM | 77.3 µM | 72.3 µM | 49.2 µM | > 100 µM | 40.2 µM | 36.6 µM | – | – | – | – | – | – | – | – | – |
| CSCCC(NC(=O)OCc1ccccc1)NC(=O)OCc1ccccc1 | – | > 100 µM | > 100 µM | > 100 µM | > 100 µM | > 100 µM | > 100 µM | > 100 µM | > 100 µM | > 100 µM | – | – | – | – | – | – | – | – | – |
| CC(=O)OCC1=C(C)C[C@H]([C@@H](COC(C)=O)C2CCC3C4C[C@H]5O[C@]56CC=CC(=O)[C@]6(C)C4CC[C@@]32C)OC1=O (some centres not stated) | 1.58 µM | 2.87 µM | 0.849 µM | – | 0.233 µM | 1.74 µM | 0.592 µM | 1.27 µM | 1.64 µM | 1.91 µM | – | – | – | – | – | – | – | – | – |
| c1ccc(-c2cc(-c3cccs3)c(-c3cccs3)o2)cc1 | > 100 µM | > 100 µM | > 100 µM | > 100 µM | > 100 µM | > 100 µM | – | > 100 µM | > 100 µM | > 100 µM | – | – | – | – | – | – | – | – | – |
| Clc1c(C(Cl)(Cl)Cl)nsc1N1CCCCC1 | 39.2 µM | – | > 100 µM | 53.2 µM | 37.3 µM | 36.2 µM | – | 95.3 µM | – | 73.8 µM | – | – | – | – | – | – | – | – | – |
| C=C(C)[C@@H]1CCC2=C[C@H](CC(C)=CC3=CC(C)=C(O3)[C@@H]1OC)OC2=O | – | > 100 µM | > 100 µM | > 100 µM | > 100 µM | > 100 µM | > 100 µM | > 100 µM | 52.7 µM | – | – | – | – | – | – | – | – | – | – |
| C=CCN(c1cc(OC)c2[nH]cc(C)c2c1[N+](=O)[O-])S(C)(=O)=O | > 100 µM | – | > 100 µM | > 100 µM | > 100 µM | > 100 µM | > 100 µM | > 100 µM | > 100 µM | > 100 µM | – | – | – | – | – | – | – | – | – |
| CCSc1nc(N)c2c(-c3ccccc3)c3c(nc2n1)CCC3 | – | – | > 100 µM | > 100 µM | > 100 µM | – | – | > 100 µM | – | > 100 µM | – | – | – | – | – | – | – | – | – |
| CCN(CC)CCCOc1cc2c(cc1OC)C(=O)N1CCC[C@H]1C=N2 | > 100 µM | 70.9 µM | – | > 100 µM | 50.2 µM | 65.8 µM | 54 µM | > 100 µM | > 100 µM | 92.1 µM | – | – | – | – | – | – | – | – | – |
| c1ccc2nc(CCC3CCCCN3)ccc2c1 (configuration not stated) | > 100 µM | > 100 µM | > 100 µM | > 100 µM | – | > 100 µM | > 100 µM | > 100 µM | > 100 µM | > 100 µM | – | – | – | – | – | – | – | – | – |
| COC(=O)c1ccccc1C1CN=NC12Cc1cccc(C)c1C2=O (configuration not stated) | > 100 µM | > 100 µM | > 100 µM | > 100 µM | > 100 µM | > 100 µM | > 100 µM | – | > 100 µM | > 100 µM | – | – | – | – | – | – | – | – | – |
| CCN(CC)C(=O)N1CN(c2ccccc2)C2(CCN(CCCSc3ccc(F)cc3)CC2)C1=O | 25.4 µM | – | – | 27.4 µM | 12.5 µM | 44.4 µM | 30.5 µM | 36.5 µM | 21 µM | – | – | – | – | – | – | – | – | – | – |
| Nn1c(Cc2ccccc2)n[nH]c1=O | > 100 µM | – | > 100 µM | > 100 µM | > 100 µM | > 100 µM | > 100 µM | > 100 µM | > 100 µM | > 100 µM | – | – | – | – | – | – | – | – | – |
| Cc1cc2nc(N3C(=O)/C(=C/c4ccc(Cl)cc4)N=C3c3ccccc3)sc2cc1C | 92.1 µM | 56.5 µM | > 100 µM | > 100 µM | > 100 µM | – | – | 98.9 µM | 89.8 µM | > 100 µM | – | – | – | – | – | – | – | – | – |
| Oc1ccc(C#CCOc2ccccc2)cc1CNCCN(Cc1ccccn1)Cc1ccccn1 | – | 4.1 µM | 1.66 µM | 13.8 µM | 5.56 µM | 3.1 µM | 6.67 µM | 4.06 µM | 4.85 µM | 2.96 µM | 0.762 µM | 1.57 µM | 0.45 µM | 2.49 µM | 2 µM | 1.34 µM | 2.07 µM | 0.799 µM | 2.08 µM |
